Measurements: ChEMBL document CHEMBL1201862, “PubChem BioAssay data set” (2004)
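The compound was tested at five concentrations on cells cultured in 96-well plates, with a 48-hour exposure period. At the GI50, growth is halved.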 Activity calls are given as the source filed them. Rule as the data show it: active = GI50 up to about 1.1 µM and inactive = higher. Square brackets hold non-standard residues; d marks the D form. Peptide text beside a SMILES is read from it. * marks the point of attachment. X26 = COC1=CC(=O)N(C(=O)[C@@H](O*)C(C)C)[C@H]1Cc1ccccc1; NMeL = CN[C@@H](CC(C)C)C(=O)O; Hexanoyl = CCCCCC(=O)*

What was measured:
Experiment in all cases: NCI-60 cell line screen, 48 h
[1] = system: COLO 205
[2] = system: LOX IMVI
[3] = system: SNB-75
[4] = system: SNB-19
[5] = system: HCT-15
[6] = system: OVCAR-8
[7] = system: SN12C
[8] = system: NCI-H226
[9] = system: MDA-MB-435
[10] = system: KM12
[11] = system: HOP-92
[12] = system: OVCAR-5
[13] = system: EKVX
[14] = system: 786-0
[15] = system: CCRF-CEM
[16] = system: BT-549
[17] = system: SK-OV-3
[18] = system: OVCAR-4
[19] = system: SR

SMILES	GI50 [1]	GI50 [2]	GI50 [3]	GI50 [4]	GI50 [5] [µM]	GI50 [6]	GI50 [7]	GI50 [8]	GI50 [9]	GI50 [10]	GI50 [11]	GI50 [12]	GI50 [13]	GI50 [14]	GI50 [15]	GI50 [16]	GI50 [17]	GI50 [18]	GI50 [19]
CSc1nnnc2ccccc12	> 100 µM (inactive)	> 100 µM (inactive)	> 100 µM (inactive)	> 100 µM (inactive)	> 100	> 100 µM (inactive)	> 100 µM (inactive)	> 100 µM (inactive)	> 100 µM (inactive)	> 100 µM (inactive)	> 100 µM (inactive)	> 100 µM (inactive)	> 100 µM (inactive)	> 100 µM (inactive)	51.4 µM (inactive)	> 100 µM (inactive)	> 100 µM (inactive)	> 100 µM (inactive)	
Cn1cc(C2NC(=O)c3ccccc3N2)c2ccccc21 (stereo unspecified)	0.925 µM (active)	0.877 µM (active)	0.873 µM (active)	1.55 µM (inactive)	0.191		1.63 µM (inactive)	0.746 µM (active)	0.0785 µM (active)	0.0612 µM (active)	22.3 µM (inactive)	1.18 µM (inactive)	0.998 µM (active)	0.955 µM (active)	0.413 µM (active)	> 100 µM (inactive)	0.35 µM (active)	0.306 µM (active)	
CCN(CC)C(=S)SS(=O)(=O)c1ccc(C)cc1	22.3 µM (inactive)	17.4 µM (inactive)		61.1 µM (inactive)	36.7	19.5 µM (inactive)	17.5 µM (inactive)	52 µM (inactive)	31.5 µM (inactive)	14.2 µM (inactive)		> 100 µM (inactive)	> 100 µM (inactive)	20.3 µM (inactive)	< 0.01 µM (active)	28.7 µM (inactive)	> 100 µM (inactive)	43.2 µM (inactive)	
COC(=O)C(C)(/N=C/c1ccccc1)c1ccccc1 (stereo unspecified)	> 100 µM (inactive)	> 100 µM (inactive)	> 100 µM (inactive)	> 100 µM (inactive)	> 100	> 100 µM (inactive)	> 100 µM (inactive)	> 100 µM (inactive)	> 100 µM (inactive)	> 100 µM (inactive)	> 100 µM (inactive)	> 100 µM (inactive)	> 100 µM (inactive)	> 100 µM (inactive)	> 100 µM (inactive)		> 100 µM (inactive)	> 100 µM (inactive)	> 100 µM (inactive)
N=C(N)SCc1cc(Cl)cc(Cl)c1O	17.7 µM (inactive)	18.5 µM (inactive)		18.2 µM (inactive)	20.1	18.3 µM (inactive)	17.4 µM (inactive)	20.3 µM (inactive)	19.7 µM (inactive)	18.4 µM (inactive)	15.7 µM (inactive)	16.3 µM (inactive)	15.2 µM (inactive)	18 µM (inactive)	13.7 µM (inactive)	18.7 µM (inactive)	36.1 µM (inactive)	23.3 µM (inactive)	
CSC(SC)=C(C(=O)O)P(=O)(O)O	> 100 µM (inactive)	> 100 µM (inactive)		> 100 µM (inactive)	> 100	> 100 µM (inactive)	> 100 µM (inactive)	> 100 µM (inactive)		> 100 µM (inactive)	> 100 µM (inactive)	> 100 µM (inactive)	> 100 µM (inactive)	> 100 µM (inactive)	> 100 µM (inactive)		> 100 µM (inactive)	> 100 µM (inactive)	> 100 µM (inactive)
Cc1ccc2c(c1C)CC1(Cc3c(C)ccc(C)c3C1=O)C2=O (stereo unspecified)	> 100 µM (inactive)		> 100 µM (inactive)	> 100 µM (inactive)	> 100	> 100 µM (inactive)	> 100 µM (inactive)	> 100 µM (inactive)	> 100 µM (inactive)	> 100 µM (inactive)	> 100 µM (inactive)	> 100 µM (inactive)	> 100 µM (inactive)	> 100 µM (inactive)	> 100 µM (inactive)	> 100 µM (inactive)	> 100 µM (inactive)	> 100 µM (inactive)	
COc1cc(/C=C2/C(=O)N/C(=N\C(C)=O)N2C)ccc1OC(C)=O	> 100 µM (inactive)	> 100 µM (inactive)	> 100 µM (inactive)	> 100 µM (inactive)	> 100	> 100 µM (inactive)	> 100 µM (inactive)	> 100 µM (inactive)	> 100 µM (inactive)	> 100 µM (inactive)	> 100 µM (inactive)	> 100 µM (inactive)	> 100 µM (inactive)	> 100 µM (inactive)		> 100 µM (inactive)	> 100 µM (inactive)	> 100 µM (inactive)	
Nc1ccccc1CC(O)C(=O)O (stereo unspecified)	> 100 µM (inactive)	> 100 µM (inactive)	> 100 µM (inactive)	> 100 µM (inactive)	> 100	> 100 µM (inactive)	> 100 µM (inactive)	> 100 µM (inactive)	> 100 µM (inactive)	> 100 µM (inactive)	> 100 µM (inactive)	> 100 µM (inactive)	> 100 µM (inactive)	> 100 µM (inactive)	> 100 µM (inactive)		> 100 µM (inactive)		> 100 µM (inactive)
COc1ccc(C=C2C(C)=NN(c3cccc(Cl)c3)C23C(Cl)C(=O)N3c2nc3ccccc3s2)cc1 (stereo unspecified)		17.7 µM (inactive)			16.8	18.9 µM (inactive)		21.4 µM (inactive)	16.5 µM (inactive)	13.6 µM (inactive)	9.02 µM (inactive)	17.3 µM (inactive)	27.3 µM (inactive)	16 µM (inactive)	3.45 µM (inactive)		28.6 µM (inactive)	23.9 µM (inactive)	21.6 µM (inactive)
COC(=O)c1c2c(cc3c1CC1(Cc4cc5c(cc4C1)CCCC5)C3)CCCC2	> 100 µM (inactive)	> 100 µM (inactive)	0.155 µM (active)		> 100	> 100 µM (inactive)	> 100 µM (inactive)		> 100 µM (inactive)	> 100 µM (inactive)	> 100 µM (inactive)	> 100 µM (inactive)	> 100 µM (inactive)	> 100 µM (inactive)	12 µM (inactive)		> 100 µM (inactive)	> 100 µM (inactive)	27.5 µM (inactive)
Cc1cc(-c2cccc3ccccc23)c(C#N)c(=S)n1C1OC(CO)C(O)C(O)C1O (stereo unspecified)	> 100 µM (inactive)	> 100 µM (inactive)	0.0379 µM (active)		> 100	> 100 µM (inactive)	82.8 µM (inactive)	50 µM (inactive)	> 100 µM (inactive)	> 100 µM (inactive)		> 100 µM (inactive)	> 100 µM (inactive)	> 100 µM (inactive)	71.1 µM (inactive)		> 100 µM (inactive)	60.3 µM (inactive)	98.4 µM (inactive)
CC1CN=C(Nc2ccc(F)cc2F)S1 (stereo unspecified)	> 100 µM (inactive)	> 100 µM (inactive)	70.3 µM (inactive)	> 100 µM (inactive)	> 100	> 100 µM (inactive)	> 100 µM (inactive)			> 100 µM (inactive)	15.6 µM (inactive)	> 100 µM (inactive)	75 µM (inactive)	> 100 µM (inactive)	> 100 µM (inactive)		> 100 µM (inactive)	> 100 µM (inactive)	> 100 µM (inactive)
C=C1C(=O)O[C@@H]2[C@@H]3O[C@@H](C[C@@H]13)[C@](C)(O)CC/C=C(\C)CCC[C@@H]2C	14.7 µM (inactive)	4.75 µM (inactive)	11.8 µM (inactive)	15.1 µM (inactive)	11.6	6.7 µM (inactive)	12 µM (inactive)	19.7 µM (inactive)	7.87 µM (inactive)	16.3 µM (inactive)	13.2 µM (inactive)	22 µM (inactive)	15 µM (inactive)	5.42 µM (inactive)	2.86 µM (inactive)	12.6 µM (inactive)	19.3 µM (inactive)	14.5 µM (inactive)	
CCCCCCCCCCCCCCCCOCC(Cl)COP(=O)(O)OP(=O)(O)OCC1OC(n2cc(C)c(=O)[nH]c2=O)CC1O (stereo unspecified)	> 100 µM (inactive)	> 100 µM (inactive)	26.7 µM (inactive)	> 100 µM (inactive)	> 100	75.9 µM (inactive)	70 µM (inactive)	28.8 µM (inactive)	57.1 µM (inactive)	95.7 µM (inactive)	29.5 µM (inactive)	95.1 µM (inactive)	> 100 µM (inactive)	> 100 µM (inactive)	> 100 µM (inactive)	> 100 µM (inactive)	> 100 µM (inactive)	> 100 µM (inactive)	
c1nc(OCC2CCCCC2)c2nc[nH]c2n1	32 µM (inactive)	34.9 µM (inactive)	51.4 µM (inactive)	> 100 µM (inactive)	46.3	47.2 µM (inactive)	57.8 µM (inactive)	26.9 µM (inactive)	46.7 µM (inactive)	54.1 µM (inactive)	66.7 µM (inactive)	62.7 µM (inactive)	53 µM (inactive)	> 100 µM (inactive)	> 100 µM (inactive)	> 100 µM (inactive)	43.7 µM (inactive)	> 100 µM (inactive)	
CCCCCC(=O)N[C@H](C(=O)N[C@H](C(=O)N(C)[C@@H](CC(C)C)C(=O)N1CCC[C@H]1C(=O)N1CCC[C@H]1C(=O)O[C@H](C(=O)N1C(=O)C=C(OC)[C@@H]1Cc1ccccc1)C(C)C)C(C)C)C(C)C (Hexanoyl-VV[NMeL]PP-X26)	32.5 µM (inactive)	> 100 µM (inactive)	19.5 µM (inactive)		> 43.4	> 100 µM (inactive)	35.6 µM (inactive)	> 100 µM (inactive)	47.9 µM (inactive)	> 74.3 µM (inactive)	36.1 µM (inactive)	> 100 µM (inactive)	> 100 µM (inactive)	> 91 µM (inactive)	42.9 µM (inactive)	83.4 µM (inactive)	> 100 µM (inactive)	> 76.9 µM (inactive)	
